Measured values reported in US10011609B2, “Heterocyclic compounds” (CADILA HEALTHCARE LIMITED, priority 2013, dated 2018).
Counter-ions that a name gives are not always drawn.

The molecules below were run against T1, GPR40 (Homo sapiens, UniProt O14842) (assay: Promoter-luciferase assay to measure GPR40 activation (HEK293 cells stably transfected with GPR40 cDNA)). Conditions: EC50 in Luciferase assay, HEK293 cells stably transfected with GPR40, 5xSRE-luciferase.
T1 construct: host or cells: HEK293 (ChemiBrite cell line)
Type: cell-based
Description: GPR40 activation was measured in HEK293 cells stably transfected with GPR40 cDNA (ChemiBrite cell lines from Millipore, US). These cells were transiently transfected with a pGL2 (Promega Inc.) plasmid having a 5×SRE sequence, cloned 5′ of a luciferase gene along with a β-galactosidase plasmid as normalizing control. Briefly, 35000 cells/well were seeded in a 96 well plates. After overnight incubation at 37° C., the cells were washed with PBS and transfected with the 5×-SRE-Luciferase plasmid and the β-galactosidase plasmid. 6 h post transfection, media was removed and replaced with fresh media with different concentration of drugs and incubated for 16 more hours. The cells were then lysed in 50 μL of Glo-Lysis buffer (Promega) for 30 min at room temperature. The cells were then centrifuged and lysates were collected. Luciferase activity was measured by adding 100 μL of luciferase substrate (Promega) in 20 μL of lysate and measuring the luminescence in luminometer. The […] activity was also measured by adding 20 μL of lysates with 20 μL of β-galactosidase buffer (Promega) and monitoring the absorbance at 415 nm. Luciferase values were divided by β-galactosidase values to normalize transfection efficiency (Table 2)

T1 sequence (O14842 whole entry, species assumed): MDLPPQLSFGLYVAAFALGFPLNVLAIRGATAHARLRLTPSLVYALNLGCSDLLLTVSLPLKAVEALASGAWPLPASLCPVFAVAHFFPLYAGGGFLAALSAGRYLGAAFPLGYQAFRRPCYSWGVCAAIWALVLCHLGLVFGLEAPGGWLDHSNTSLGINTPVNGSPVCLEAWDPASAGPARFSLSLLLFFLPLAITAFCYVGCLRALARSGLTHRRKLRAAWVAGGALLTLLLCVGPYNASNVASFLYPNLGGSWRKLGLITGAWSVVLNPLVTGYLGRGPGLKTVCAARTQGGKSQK

| SMILES | EC50 [nM] |
| --- | --- |
| CC#C[C@@H](CC(=O)[O][Ca][O]C(=O)C[C@H](C#CC)c1ccc(OCc2cccc(CN3CCc4ccccc4C3)c2)cc1)c1ccc(OCc2cccc(CN3CCc4ccccc4C3)c2)cc1 [Compound 20, Calcium (S)-3-(4-((3-((3,4-dihydroisoquinolin-2(1H)-yl)methyl)benzyl)oxy)phenyl)hex-4-ynoate] | 2.7 |
| CC#C[C@@H](CC(=O)[O][Ca][O]C(=O)C[C@H](C#CC)c1ccc(OCc2cccc(CN3CCc4sc(Cl)cc4C3)c2)cc1)c1ccc(OCc2cccc(CN3CCc4sc(Cl)cc4C3)c2)cc1 [Compound 39, Calcium (S)-3-(4-((3-((2-chloro-6,7-dihydrothieno[3,2-c]pyridin-5(4H)-yl)methyl)benzyl)oxy)phenyl)hex-4-ynoate] | 1.7 |

Same assay, conditions: HEK293 cells stably transfected with GPR40, 5xSRE-luciferase; read-out: EC50 in Luciferase assay

| SMILES | EC50 [nM] |
| --- | --- |
| CC#C[C@@H](CC(=O)O)c1ccc(OCc2cccc(CN3CCc4c(ccn4C(=O)OC(C)(C)C)C3)c2)cc1 [Compound 8, (S)-3-(4-((3-((1-(tert-butoxycarbonyl)-6,7-dihydro-1H-pyrrolo[3,2-c]pyridin-5(4H)-yl)methyl)benzyl)oxy)phenyl)hex-4-ynoic acid] | 11.8 |
| CC#C[C@@H](CC(=O)O)c1ccc(OCc2cccc(CN3CCc4ncncc4C3)c2)cc1 [Compound 21, (S)-3-(4-((3-((7,8-Dihydropyrido[4,3-d]pyrimidin-6(5H)-yl)methyl)benzyl)oxy)phenyl)hex-4-ynoic acid] | 2.8 |
| CC#C[C@@H](CC(=O)O)c1ccc(OCc2cccc(CN3CC4CC(C3)O4)c2)cc1 [Compound 23, (3S)-3-(4-((3-(6-Oxa-3-azabicyclo[3.1.1]heptan-3-ylmethyl)benzyl)oxy)phenyl)hex-4-ynoic acid] | 5.3 |
| CC#C[C@@H](CC(=O)O)c1ccc(OCc2cccc(CN3CCc4oc(C5CC5)nc4C3)c2)cc1 [Compound 26, (S)-3-(4-((3-((2-Cyclopropyl-6,7-dihydrooxazolo[4,5-c]pyridin-5(4H)-yl)methyl)benzyl)oxy)phenyl)hex-4-ynoic acid] | 4.1 |
| CC#C[C@@H](CC(=O)O)c1ccc(OCc2cccc(CN3CCCc4ccc(OC)cc43)c2)cc1 [Compound 30, 1-(3-((4-((S)-1-carboxypent-3-yn-2-yl)phenoxy)methyl)benzyl)-7-methoxy-1,2,3,4-tetrahydroquinolin-1-ium formate] | 4.5 |
| CC#C[C@@H](CC(=O)O)c1ccc(OCc2cccc(CN3CCc4nc(Cl)sc4C3)c2)cc1 [Compound 31, (S)-3-(4-((3-((2-Chloro-6,7-dihydrothiazolo[5,4-c]pyridin-5(4H)-yl)methyl)benzyl)oxy)phenyl)hex-4-ynoic acid] | 9.7 |
| CC#C[C@@H](CC(=O)O)c1ccc(OCc2cccc(CN3CCc4nc(N)sc4C3)c2)cc1 [Compound 38, (S)-3-(4-((3-((2-amino-6,7-dihydrothiazolo[5,4-c]pyridin-5(4H)-yl)methyl)benzyl)oxy)phenyl)hex-4-ynoic acid] | 17.8 |
| CC#C[C@@H](CC(=O)O)c1ccc(OCc2cccc(CN3CCc4sc(C(N)=O)cc4C3)c2)cc1 [Compound 40, (S)-3-(4-((3-((2-carbamoyl-6,7-dihydrothieno[3,2-c]pyridin-5(4H)-yl)methyl)benzyl)oxy)phenyl)hex-4-ynoic acid] | 8 |
| CC#C[C@@H](CC(=O)O)c1ccc(OCc2cccc(CN3CCc4sc(C#N)cc4C3)c2)cc1 [Compound 43, (S)-3-(4-((3-((2-cyano-6,7-dihydrothieno[3,2-c]pyridin-5(4H)-yl)methyl)benzyl)oxy)phenyl)hex-4-ynoic acid] | 7.3 |
| CC#C[C@@H](CC(=O)O)c1ccc(OCc2cccc(CN3CCCC3c3ccccc3)c2)cc1 (stereo partly drawn) [Compound 51, (3S)-3-(4-((3-((2-phenylpyrrolidin-1-yl)methyl)benzyl)oxy)phenyl)hex-4-ynoic acid] | 3 |

Continued, values first:

| EC50 [nM] | SMILES |
| --- | --- |
| 5.6 | CC#C[C@@H](CC(=O)O)c1ccc(OCc2cccc(CN3Cc4ccccc4C3)c2)cc1 [Compound 12, (S)-3-(4-((3-(isoindolin-2-ylmethyl)benzyl)oxy)phenyl)hex-4-ynoic acid trifluoroacetic acid] |
| 0.8 | CC#C[C@@H](CC(=O)O)c1ccc(OCc2cccc(CN3CCCc4ccccc43)c2)cc1 [Compound 13, (S)-3-(4-((3-((3,4-dihydroquinolin-1(2H)-yl)methyl)benzyl)oxy)phenyl)hex-4-ynoic acid] |
| 4.6 | CC#C[C@@H](CC(=O)O)c1ccc(OCc2cccc(CN3CCc4ccccc4C3)c2)cc1 [Compound 15, (S)-3-(4-((3-((3,4-dihydroisoquinolin-2(1H)-yl)methyl)benzyl)oxy)phenyl)hex-4-ynoic acid] |
| 8.8 | CC#C[C@@H](CC(=O)O)c1ccc(OCc2cccc(CN3CCc4sc(C(F)F)cc4C3)c2)cc1 [Compound 18, (S)-3-(4-((3-((2-(Difluoromethyl)-6,7-dihydrothieno[3,2-c]pyridin-5(4H)-yl)methyl)benzyl)oxy)phenyl)hex-4-ynoic acid] |
| 0.7 | CC#C[C@@H](CC(=O)O)c1ccc(OCc2cccc(CN3CCc4ccccc43)c2)cc1 [Compound 24, (S)-3-(4-((3-(Indolin-1-ylmethyl)benzyl)oxy)phenyl)hex-4-ynoic acid] |
| 4.8 | CC#C[C@@H](CC(=O)O)c1ccc(OCc2cccc(CN3CCc4nc(Br)sc4C3)c2)cc1 [Compound 32, (S)-3-(4-((3-((2-Bromo-6,7-dihydrothiazolo[5,4-c]pyridin-5(4H)-yl)methyl)benzyl)oxy)phenyl)hex-4-ynoic acid] |
| 204 | CC#C[C@@H](CC(=O)O)c1ccc(OCc2cccc(CN3CCc4sc(C(=O)O)cc4C3)c2)cc1 [Compound 35, (S)-5-(3-((4-(1-carboxypent-3-yn-2-yl)phenoxy)methyl)benzyl)-4,5,6,7-tetrahydrothieno[3,2-c]pyridine-2-carboxylic acid] |
| 4.8 | CC#C[C@@H](CC(=O)O)c1ccc(OCc2cccc(CN3CCc4sc(C=O)cc4C3)c2)cc1 [Compound 44, (S)-3-(4-((3-((2-formyl-6,7-dihydrothieno[3,2-c]pyridin-5(4H)-yl)methyl)benzyl)oxy)phenyl)hex-4-ynoic acid] |
| 6 | CC#C[C@@H](CC(=O)O)c1ccc(OCc2cccc(CN3CCc4sc(C(=O)NC)cc4C3)c2)cc1 [Compound 46, (S)-3-(4-((3-((2-(methylcarbamoyl)-6,7-dihydrothieno[3,2-c]pyridin-5(4H)-yl)methyl)benzyl)oxy)phenyl)hex-4-ynoic acid] |
| 9 | CC#C[C@@H](CC(=O)O)c1ccc(OCc2cccc(CN3CCc4sc(C(=O)N(C)C)cc4C3)c2)cc1 [Compound 47, (S)-3-(4-((3-((2-(dimethylcarbamoyl)-6,7-dihydrothieno[3,2-c]pyridin-5(4H)-yl)methyl)benzyl)oxy)phenyl)hex-4-ynoic acid] |
| 20.8 | CC#C[C@@H](CC(=O)O)c1ccc(OCc2cccc(CN3CCc4nc(OC)ncc4C3)c2)cc1 [Compound 50, (S)-3-(4-((3-((2-Methoxy-7,8-dihydropyrido[4,3-d]pyrimidin-6(5H)-yl)methyl)benzyl)oxy)phenyl)hex-4-ynoic acid] |
| 56.5 | CC#C[C@H](CC(=O)O)c1ccc(OCc2cccc(CN3CCc4sc(C)cc4C3)c2)cc1 [Compound 55, (R)-3-(4-((3-((2-methyl-6,7-dihydrothieno[3,2-c]pyridin-5(4H)-yl)methyl)benzyl)oxy)phenyl)hex-4-ynoic acid] |
